Legend:
[1] = test system: human B cell lymphoma cell KARPAS422; assay: Cell proliferation (WST-8), KARPAS422, 7 days; assay type: cell-based; conditions: KARPAS-422, 168 h, WST-8, Table 4A, read-out: Karpas Cell line
Protocol: Analysis of Cell Proliferation:
To assess the effect of PRC2 inhibition on cell growth, cells were seeded in 96-well cell culture plates at a density of 2 000-3 000 cells/well in 200 μL of culture medium, and treated with serially diluted compounds for 7 days at 37° C. in an atmosphere of 5% CO2. Cell growth was evaluated by a […] WST-8 assay (Dojindo Molecular Technologies) using a Tecan Infinite M1000 multimode microplate reader (Tecan, Morrisville, NC). The WST-8 reagent was added to the plate, incubated for 1-4 h, and read at 450 nm. The readings were normalized to the DMSO-treated cells, and the IC50 was calculated by nonlinear regression analysis using GraphPad Prism 6 software

EED (1-441)-His protein = target: T1, EED (1-441)-His protein (Homo sapiens, UniProt O75530); assay: EED-H3K27Me3 peptide competition binding assay by AlphaScreen; conditions: Table 4A, read-out: Alpha screen
T1 construct: 20 nM EED (1-441)-His protein
In short: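 EED(1-441)-His was preincubated 15 min with compound, then biotin-H3K27Me3(19-33) peptide added for 30 min; both were added as 20 nM solutions in 25 mM HEPES pH 8, 0.02% Tween-20, 0.5% BSA. Ni-chelate acceptor and streptavidin donor beads (10 μg/ml each final) were added for 1 h in the dark at RT. Signal read at 615 nm (680 nm excitation), normalised to controls and fitted to dose-response for IC50.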

[2] = test system: BAP1 mut mesothelioma PDX model; assay: BAP1 mut mesothelioma PDX model (Examples 15-17); assay type: in vivo, mice; conditions: Compound A-1 10 mg/kg, orally, every other day, 28 days; end of study
Protocol: A subcutaneous xenograft tumor model of human tumor immunodeficient mice was established by cell inoculation: tumor cells in logarithmic growth phase were collected, counted, resuspended in 1×PBS, and the cell suspension concentration was adjusted to 2.5-5×10^7/mL. The tumor cells were inoculated subcutaneously in the right side of immunodeficient mice with a 1 ml syringe ([…]), 5-10×10^6/0.2 mL/mouse. All animal experiments were strictly in accordance with the specifications for the use and management of experimental animals in GenePharma Co., Ltd. and Suzhou Ascentage Pharma Co., Ltd. The calculation of relevant parameters refers to the Chinese NMPA “Guidelines for Non-Clinical Research Techniques of Cytotoxic Anti-tumor Drugs”.
Animal body weight and tumor size were measured twice weekly during the experiment. The state of the animal and the presence or absence of death were observed every day. The growth of tumor and the effects of treatment on normal behavior of animals were monitored routinely, specifically involving experimental animal activity, feeding and drinking, weight gain or loss, eyes, clothing hair and other abnormalities. The deaths and clinical symptoms observed during the experiment were recorded in the raw data. All operations for administration and measurement of mouse body weight and tumor volume were performed in a clean bench. According to the requirements of the experimental protocol, after the end of the last administration, plasma and tumor tissues were collected, weighed and photographed. The plasma and tumor samples were frozen at −80° C. for ready-to-use.
Tumor volume (TV) is calculated as: TV=a×b^2/2, wherein a and b represent the length and width of the tumor to be measured, respectively.
The relative tumor volume (RTV) is calculated as: RTV=Vt/V1, wherein V1 is the tumor volume at the start of grouping and administration, and Vt is the tumor volume measured on the t day after administration.
The evaluation index of anti-tumor activity is the relative tumor proliferation rate T/C (%), and the calculation formula thereof is: relative tumor proliferation rate T/C (%)=(TRTV/CRTV)×100%, TRTV is the RTV of treatment group, CRTV is the RTV of solvent control group.
A dose of drug is considered to be severely toxic if the body weight of mouse is reduced by more than 20% or the number of drug-related deaths exceeds 20%.
According to the description by Clarke R., Issues in experimental design and endpoint analysis in the study of experimental cytotoxic agents in vivo in breast cancer and other models [J]. Breast Cancer Research & Treatment, 1997, 46(2-3): 255-278, synergy analysis was evaluated using the following formula: synergy factor=((A/C)×(B/C))/(AB/C); A=RTV value of drug A alone group; B=RTV value of drug B alone group; C=RTV value of the solvent control group, and AB=RTV value of the A and B combination group.
In this experiment, a BAP1 mut mesothelioma PDX model (Lide Biotech) was established to evaluate the anti-tumor effect of Compound 73. The dosing regimen was as follows: • Compound 73: 50 mg/kg, orally, once per day, for a total of 28 days; • Compound 73: 100 mg/kg, orally, once per day, for a total of 28 days;
In this experiment, a BAP1 mut mesothelioma PDX model (Lide Biotech) was established to evaluate the anti-tumor effect of Compound 73 in combination with Compound A-1. […]

T1 sequence (O75530 whole entry): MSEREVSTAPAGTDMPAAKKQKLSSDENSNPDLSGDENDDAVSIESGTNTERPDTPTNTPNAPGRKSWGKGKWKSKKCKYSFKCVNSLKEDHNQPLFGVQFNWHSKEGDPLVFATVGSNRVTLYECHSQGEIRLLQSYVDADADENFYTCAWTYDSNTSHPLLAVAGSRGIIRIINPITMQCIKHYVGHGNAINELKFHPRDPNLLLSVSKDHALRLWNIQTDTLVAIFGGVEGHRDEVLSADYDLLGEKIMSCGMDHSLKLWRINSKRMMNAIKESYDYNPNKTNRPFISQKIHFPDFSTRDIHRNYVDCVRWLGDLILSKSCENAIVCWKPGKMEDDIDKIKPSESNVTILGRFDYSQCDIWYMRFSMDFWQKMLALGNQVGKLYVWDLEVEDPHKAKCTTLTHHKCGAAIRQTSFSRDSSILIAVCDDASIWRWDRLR

Compound | IC50 [1] | IC50 (EED (1-441)-His protein) | T/C (%) [2]
O=C1c2ncn3c(NCc4c(F)ccc5c4CCO5)ncc(c23)-c2ccc(F)cc2CN1C1CC1 [Compound 64, 4-cyclopropyl-7-fluoro-12-(((5-fluoro-2,3-dihydrobenzofuran-4-yl)methyl)amino)-4,5-dihydro-3H-2,4,11,12a-tetraazabenzo[4,5]cycloocta[1,2,3-cd] inden-3-one] | 2.44 nM | – | –
O=C1c2ncn3c(NCc4c(F)ccc5c4CCO5)ncc(c23)-c2ccc(F)cc2CN1C1CCOCC1 [Compound 65, 7-fluoro-12-(((5-fluoro-2,3-dihydrobenzofuran-4-yl)methyl)amino)-4-(tetrahydro-2H-pyran-4-yl)-4,5-dihydro-3H-2,4,11,12a-tetraazabenzo[4,5] cycloocta[1,2,3-cd]inden-3-one] | 0.69 nM | – | –
CN1CCC(N2Cc3cc(F)ccc3-c3cnc(NCc4c(F)ccc5c4CCO5)n4cnc(c34)C2=O)CC1 [Compound 75, 7-fluoro-12-(((5-fluoro-2,3-dihydrobenzofuran-4-yl)methyl)amino)-4-(1-methylpiperidin-4-yl)-4,5-dihydro-3H-2,4,11,12a-tetraazabenzo[4,5] cycloocta[1,2,3-cd]inden-3-one] | 11.1 nM | 1.72 nM | –
CC(F)(F)CN1Cc2cc(F)ccc2-c2cnc(NCc3c(F)ccc4c3CCO4)n3cnc(c23)C1=O [Compound 76, 4-(2,2-difluoropropyl)-7-fluoro-12-(((5-fluoro-2,3-dihydrobenzofuran-4-yl)methyl)amino)-4,5-dihydro-3H-2,4,11,12a-tetraazabenzo[4,5]cycloocta [1,2,3-cd]inden-3-one] | 14.5 nM | 0.97 nM | –
CC(C)(F)CN1Cc2cc(F)ccc2-c2cnc(NCc3c(F)ccc4c3CCO4)n3cnc(c23)C1=O [Compound 78, 7-fluoro-12-(((5-fluoro-2,3-dihydrobenzofuran-4-yl)methyl)amino)-4-(2-fluoro-2-methylpropyl)-4,5-dihydro-3H-2,4,11,12a-tetraazabenzo[4,5] cycloocta[1,2,3-cd]inden-3-one] | 34.5 nM | 3.23 nM | –
O=C1c2ncn3c(NCc4c(F)ccc5c4CCO5)ncc(c23)-c2ccc(F)cc2CN1CCF [Compound 79, 7-fluoro-12-(((5-fluoro-2,3-dihydrobenzofuran-4-yl)methyl)amino)-4-(2-fluoroethyl)-4,5-dihydro-3H-2,4,11,12a-tetraazabenzo[4,5]cycloocta [1,2,3-cd]inden-3-one] | 15.3 nM | 1.61 nM | –
O=C1c2ncn3c(NCc4c(F)ccc5c4CCO5)ncc(c23)-c2ccc(F)cc2CN1CC(F)F [Compound 80, 4-(2,2-difluoroethyl)-7-fluoro-12-(((5-fluoro-2,3-dihydrobenzofuran-4-yl)methyl)amino)-4,5-dihydro-3H-2,4,11,12a-tetraazabenzo[4,5]cycloocta[1,2,3-cd]inden-3-one] | 2.42 nM | 1.61 nM | –
Cc1ccc(C(=O)Nc2ccc(CN3CCN(C)CC3)c(C(F)(F)F)c2)cc1C#Cc1cnc2[nH]ncc2c1 [Compound A-1] | – | – | 74.8%
